Assay results: US10314823B2, “Substituted 1,2-dihydro-3H-pyrrolo[1,2-c]imidazol-3-one antibacterial compounds” (IDORSIA PHARMACEUTICALS LTD, priority 2015, dated 2019)
Values after ≈ are worked out from the molar mass of the structure shown.

Assays:
Assay type in all cases: cell-based
wild-type E. coli A-1261 = experiment: MIC of prodrug with or without alkaline phosphatase or esterase
Experimental: Minimal Inhibitory Concentrations (MICs; mg/L) were determined in cation-adjusted Mueller-Hinton Broth by a microdilution method following the description given in “Methods for Dilution Antimicrobial Susceptibility Tests for Bacteria that Grow Aerobically”, Approved standard, 7th ed., Clinical and Laboratory Standards Institute (CLSI) Document M7-A7, Wayne, Pa., USA (2006).
The compound of Example 86 was tested against wild-type E. coli A-1261 in the absence of alkaline phosphatase or esterase, in the presence of an alkaline phosphatase and in the presence of an esterase. The corresponding antibacterial test results are given in Table 2 hereafter (MICs in mg/L).

E. coli ATCC25922 = experiment: Bacterial growth minimal inhibitory concentration (CLSI broth microdilution); details: quinolone-sensitive strain, cation-adjusted Mueller-Hinton Broth; for MIC: Escherichia coli, ATCC25922
In short: (§1)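 Broth microdilution in cation-adjusted Mueller-Hinton broth following CLSI M7-A7. MICs are expressed in mg/L. K. pneumoniae A-651 is multiply resistant, including to quinolones; the E. coli and P. aeruginosa strains are quinolone-sensitive.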

K. pneumoniae A-651 = experiment: as above; details: multiply resistant strain (in particular quinolone-resistant), cation-adjusted Mueller-Hinton Broth; for MIC: Klebsiella pneumoniae, A651
In short: as §1

P. aeruginosa ATCC27853 = experiment: as above; details: quinolone-sensitive strain, cation-adjusted Mueller-Hinton Broth; for MIC: Pseudomonas aeruginosa, ATCC27853
In short: as §1

Compound	MIC (E. coli ATCC25922)	MIC (K. pneumoniae A-651)	MIC (P. aeruginosa ATCC27853)	also measured
C[C@@](CCN1Cc2cc(C#CC#CC3CN(CCO)C3)cn2C1=O)(C(=O)NOC(=O)CCc1ccccc1OP(=O)(O)O)S(C)(=O)=O [Example 86, (2R)-2-(3-((4-(6-((1-(2-hydroxyethyl)azetidin-3-yl)buta-1,3-diyn-1-yl)-3-oxo-1H-pyrrolo[1,2-c]imidazol-2(3H)-yl)-2-methyl-2-(methylsulfonyl)butanamido)oxy)-3-oxopropyl)phenyl dihydrogen phosphate]	–	–	–	MIC for E. coli A-1261 In the presence of an alkaline phosphatase (2 i.U./mL) (wild-type E. coli A-1261; alkaline phosphatase 2 i.U./mL): 1 mg/L; MIC for E. coli A-1261 In the presence of an esterase (10 i.U./mL) (wild-type E. coli A-1261; esterase 10 i.U./mL): 16 mg/L; MIC for E. coli A-1261 In the absence of alkaline phosphatase or esterase (wild-type E. coli A-1261; no alkaline phosphatase or esterase): 16 mg/L
C[C@@](CCN1Cc2cc(C#Cc3ccc(C4(F)CN(C5COC5)C4)cc3)cn2C1=O)(C(=O)NO)S(C)(=O)=O [Example 16, (2R)-4-(6-((4-(3-fluoro-1-(oxetan-3-yl)azetidin-3-yl)phenyl)ethynyl)-3-oxo-1H-pyrrolo[1,2-c]imidazol-2(3H)-yl)-N-hydroxy-2-methyl-2-(methylsulfonyl)butanamide]	0.25 µg/mL (≈ 0.459 µM)	0.5 µg/mL (≈ 0.918 µM)	1 µg/mL (≈ 1.84 µM)	–
C[C@@](CCN1Cc2cc(C#Cc3ccc(CN4CCC(N)C(F)(F)C4)cc3)cn2C1=O)(C(=O)NO)S(C)(=O)=O (stereo partly drawn) [Example 14, (2R)-4-(6-((4-((4-amino-3,3-difluoropiperidin-1-yl)methyl)phenyl)ethynyl)-3-oxo-1H-pyrrolo[1,2-c]imidazol-2(3H)-yl)-N-hydroxy-2-methyl-2-(methylsulfonyl)butanamide]	0.5 µg/mL (≈ 0.887 µM)	2 µg/mL (≈ 3.55 µM)	1 µg/mL (≈ 1.77 µM)	–
C[C@@](CCN1Cc2cc(C#Cc3ccc(COC(=O)N4CCC(O)CC4)cc3)cn2C1=O)(C(=O)NO)S(C)(=O)=O [Example 5, (3R)-4-((2-(4-(hydroxyamino)-3-methyl-3-(methylsulfonyl)-4-oxobutyl)-3-oxo-2,3-dihydro-1H-pyrrolo[1,2-c]imidazol-6-yl)ethynyl)benzyl 4-hydroxypiperidine-1-carboxylate]	0.25 µg/mL (≈ 0.437 µM)	1 µg/mL (≈ 1.75 µM)	2 µg/mL (≈ 3.49 µM)	–
C[C@@](CCN1Cc2cc(C#Cc3ccc(CN4CC(O)C4)cc3)cn2C1=O)(C(=O)NO)S(C)(=O)=O [Example 43, (2R)—N-hydroxy-4-(6-((4-((3-hydroxyazetidin-1-yl)methyl)phenyl)ethynyl)-3-oxo-1H-pyrrolo[1,2-c]imidazol-2(3H)-yl)-2-methyl-2-(methylsulfonyl)butanamide]	0.5 µg/mL (≈ 0.999 µM)	2 µg/mL (≈ 4 µM)	0.5 µg/mL (≈ 0.999 µM)	–
(2R)-4-(6-((1-isopropylazetidin-3-yl)buta-1,3-diyn-1-yl)-3-oxo-1H-pyrrolo[1,2-c]imidazol-2(3H)-yl)-2-methyl-2-(methylsulfonyl)-N-((tetrahydro-2H-pyran-2-yl)oxy)butanamide [Example 59]	–	–	–	MIC for E. coli ATCC25922 (E. coli ATCC25922): 1 mg/L; MIC for K. Pneumoniae A-651 (K. pneumoniae A-651): 0.5 mg/L; MIC for P. aeruginosa ATCC27853 (P. aeruginosa ATCC27853): 0.5 mg/L
CN1CCN(C(=O)OCc2ccc(C#Cc3cc4n(c3)C(=O)N(CC[C@](C)(C(=O)NO)S(C)(=O)=O)C4)cc2)CC1 [Example 17, (3R)-4-((2-(4-(hydroxyamino)-3-methyl-3-(methylsulfonyl)-4-oxobutyl)-3-oxo-2,3-dihydro-1H-pyrrolo[1,2-c]imidazol-6-yl)ethynyl)benzyl 4-methylpiperazine-1-carboxylate]	0.25 µg/mL (≈ 0.437 µM)	0.5 µg/mL (≈ 0.875 µM)	2 µg/mL (≈ 3.5 µM)	–
[2H]C([2H])([2H])S(=O)(=O)[C@](C)(CCN1Cc2cc(C#CC#CC3CN(CCO)C3)cn2C1=O)C(=O)NO [Example 81, (2R)—N-hydroxy-4-(6-((1-(2-hydroxyethyl)azetidin-3-yl)buta-1,3-diyn-1-yl)-3-oxo-1H-pyrrolo[1,2-c]imidazol-2(3H)-yl)-2-methyl-2-((methyl-d3)sulfonyl)butanamide]	1 µg/mL (≈ 2.15 µM)	2 µg/mL (≈ 4.3 µM)	1 µg/mL (≈ 2.15 µM)	–
CCN1CC(C#CC#Cc2cc3n(c2)C(=O)N(CC[C@](C)(C(=O)NO)S(C)(=O)=O)C3)C1 [Example 54, (2R)-4-(6-((1-ethylazetidin-3-yl)buta-1,3-diyn-1-yl)-3-oxo-1H-pyrrolo[1,2-c]imidazol-2(3H)-yl)-N-hydroxy-2-methyl-2-(methylsulfonyl)butanamide]	0.25 µg/mL (≈ 0.56 µM)	0.5 µg/mL (≈ 1.12 µM)	0.5 µg/mL (≈ 1.12 µM)	–
[2H]C([2H])S(=O)(=O)[C@](C)(CCN1Cc2cc(C#CC#CC3CN(C)C3)cn2C1=O)C(=O)NO [Example 80, (2R)—N-hydroxy-2-methyl-2-((methyl-d2)sulfonyl)-4-(6-((1-methylazetidin-3-yl)buta-1,3-diyn-1-yl)-3-oxo-1H-pyrrolo[1,2-c]imidazol-2(3H)-yl)butanamide]	0.5 µg/mL (≈ 1.15 µM)	0.5 µg/mL (≈ 1.15 µM)	0.5 µg/mL (≈ 1.15 µM)	–
C[C@H]1[C@H](C#CC#Cc2cc3n(c2)C(=O)N(CC[C@](C)(C(=O)NO)S(C)(=O)=O)C3)CN1C [Example 92, (2R)-4-(6-(((2S,3R)-1,2-dimethylazetidin-3-yl)buta-1,3-diyn-1-yl)-3-oxo-1H-pyrrolo[1,2-c]imidazol-2(3H)-yl)-N-hydroxy-2-methyl-2-(methylsulfonyl)butanamide]	0.25 µg/mL (≈ 0.56 µM)	0.25 µg/mL (≈ 0.56 µM)	0.25 µg/mL (≈ 0.56 µM)	–
C[C@@](CCN1Cc2cc(C#CC#C[C@@H]3C[C@H]3CN3CCOCC3)cn2C1=O)(C(=O)NO)S(C)(=O)=O [Example 29, (2R)—N-hydroxy-2-methyl-2-(methylsulfonyl)-4-(6-(((1R,2R)-2-(morpholinomethyl)cyclopropyl)buta-1,3-diyn-1-yl)-3-oxo-1H-pyrrolo[1,2-c]imidazol-2(3H)-yl)butanamide]	0.25 µg/mL (≈ 0.497 µM)	0.5 µg/mL (≈ 0.995 µM)	2 µg/mL (≈ 3.98 µM)	–
C[C@@](CCN1Cc2cc(C#CC#CC3CCN(C4COC4)C3)cn2C1=O)(C(=O)NO)S(C)(=O)=O (stereo partly drawn) [Example 89, (2R)—N-hydroxy-2-methyl-2-(methylsulfonyl)-4-(6-((1-(oxetan-3-yl)pyrrolidin-3-yl)buta-1,3-diyn-1-yl)-3-oxo-1H-pyrrolo[1,2-c]imidazol-2(3H)-yl)butanamide]	1 µg/mL (≈ 2.05 µM)	1 µg/mL (≈ 2.05 µM)	2 µg/mL (≈ 4.09 µM)	–
CN1CCC(C#Cc2ccc(-c3cc4n(c3)C(=O)N(CC[C@](C)(C(=O)NO)S(C)(=O)=O)C4)c(F)c2)CC1 [Example 87, (2R)-4-(6-(2-fluoro-4-((1-methylpiperidin-4-yl)ethynyl)phenyl)-3-oxo-1H-pyrrolo[1,2-c]imidazol-2(3H)-yl)-N-hydroxy-2-methyl-2-(methylsulfonyl)butanamide]	4 µg/mL (≈ 7.54 µM)	> 8 µg/mL	8 µg/mL (≈ 15.1 µM)	–
